Results taken from patent US8609650B2, “Bridged bicyclic aryl and bridged bicyclic heteroaryl substituted triazoles useful as Axl inhibitors” (Rigel Pharmaceuticals, Inc., priority 2006, dated 2013).

target: T1, Axl (Homo sapiens, UniProt P30530); assay: Phospho-Akt In-Cell Western Assay (ability to inhibit Axl activity); type: cell-based; details: Hela cells, stimulated by Axl-antibody cross-linking, phospho-Akt chemiluminescence normalized to relative cell number
T1 construct: endogenous in cells; host or cells: HeLa cells
T1 sequence (P30530 26-894): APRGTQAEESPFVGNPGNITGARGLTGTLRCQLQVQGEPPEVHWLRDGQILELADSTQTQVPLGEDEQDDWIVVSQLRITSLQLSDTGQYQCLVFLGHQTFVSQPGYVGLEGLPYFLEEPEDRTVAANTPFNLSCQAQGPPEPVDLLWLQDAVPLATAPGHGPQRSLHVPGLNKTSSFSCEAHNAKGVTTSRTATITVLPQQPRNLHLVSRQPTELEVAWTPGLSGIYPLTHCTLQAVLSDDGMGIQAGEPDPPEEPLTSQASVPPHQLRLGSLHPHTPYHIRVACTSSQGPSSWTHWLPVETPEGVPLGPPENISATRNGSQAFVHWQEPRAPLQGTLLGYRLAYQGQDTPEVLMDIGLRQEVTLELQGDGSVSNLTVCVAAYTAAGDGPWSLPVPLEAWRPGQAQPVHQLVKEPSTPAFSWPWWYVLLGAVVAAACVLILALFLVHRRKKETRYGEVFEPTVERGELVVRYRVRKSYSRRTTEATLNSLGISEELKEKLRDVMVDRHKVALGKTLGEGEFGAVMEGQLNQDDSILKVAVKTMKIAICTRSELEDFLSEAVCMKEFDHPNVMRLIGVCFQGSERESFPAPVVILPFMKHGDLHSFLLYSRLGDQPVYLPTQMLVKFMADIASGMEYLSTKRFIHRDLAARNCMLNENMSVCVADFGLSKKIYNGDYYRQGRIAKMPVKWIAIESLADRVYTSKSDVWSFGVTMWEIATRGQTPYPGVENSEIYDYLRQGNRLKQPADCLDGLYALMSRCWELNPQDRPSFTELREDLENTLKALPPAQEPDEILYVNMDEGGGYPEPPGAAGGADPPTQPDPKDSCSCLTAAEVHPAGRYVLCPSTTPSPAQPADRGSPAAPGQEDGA
Description: The compounds of the invention were tested in the following assay for their ability to inhibit Axl activity.
Phospho-Akt In-Cell Western Assay
• Cell culture plate: 96 well assay plate (Corning 3610), white, clear bottom, tissue-culture treated. • Cells: Hela cells. • Starvation medium: For Axl stimulation: 0.5% FCS (fetal calf serum) in DMEM, plus Axl/Fc (extracellular domain of AXL fused to immunoglobulin Fc region) (R&D, 154-AL) 500 ng/mL. • For EGF (epidermal growth factor) stimulation: 0.5% FCS in DMEM (Dulbecco's modified Eagles medium). • Poly-L-Lysine 0.01% solution (the working solution): 10 μg/ml, dilute In PBS (phosphate buffered saline). • Axl antibody cross-linking: • 1st: Mouse anti-Axl (R&D, MAB154). • 2nd: Biotin-SP-conjugated AffiniPure goat anti-mouse IgG (H+L) (Jackson ImmunoResearch #115-065-003). • Fixing buffer: 4% formaldehyde in PBS. • Wash buffer: 0.1% TritonX-100 in PBS. • Quenching buffer: 3% H2O2, 0.1% Azide in wash buffer, Azide and hydrogen peroxide (H2O2) are added fresh. • Blocking buffer: 5% BSA in TBST (tris buffered saline plus 0.1% Tween 20). • Primary antibody: Rabbit anti-human Phospho-Akt antibody (Cell Signaling 9271): 1×250 diluted in blocking buffer. • Secondary antibody: HRP (horse radish peroxidase)-conjugated Goat anti-Rabbit secondary, stock solution: Jackson ImmunoResearch (Goat anti-Rabbit HRP, #111-035-144) 1:1 diluted in glycerol, store at −20° C. The working solution: 1×2000 dilution of stock in blocking buffer. • Chemiluminescent working solution (Pierce, 37030): SuperSignal ELISA (enzyme linked immunosorbant assay) Pico Chemiluminescent substrate. • Crystal Violet solution: Stock: 2.5% Crystal violet in methanol, filtered and kept at ambient temperature. The working solution: dilute the stock 1:20 with PBS immediately before use. • 10% SDS: working solution: 5% SDS (sodium dodecylsulfate), diluted in PBS Methods: Day 1:
A 96 well TC (tissue culture treated) plate was coated with 10 μg/mL poly-L-Lysine at 37° C. for 30 min, washed twice with PBS, and air-dried for 5 minutes before cells were added. Hela cells were seeded at 10,000 cells/well and the cells were starved in 100 μL starvation medium containing Axl/Fc for 24 hrs.
The cells were pre-treated with test compounds by adding 100 μL of 2× test compound to the starvation medium on the cells. The cells were incubated at 37° C. for 1 hr before stimulation.
The cells were stimulated by Axl-antibody cross-linking as follows: A 5×1st/2nd Axl antibody mixture was made (37.5 μg/mL 1st/100 μg/mL 2nd) in starvation medium and nutated at 4° C. with thorough mixing for 1-2 hours for clustering. The resulting mix was warmed to 37° C. 50 μL of 5× Axl 1st/2nd of antibody cluster was added to the cells and the cells were incubated at 37° C. for 5 min.
After 5 minutes stimulation, the plate was flicked to remove medium and the plate was tapped onto paper towels. Formaldehyde (4.0% in PBS, 100 μL) was added to fix the cells and the cells were incubated at ambient temperature for 20 min without shaking.
The cells were washed with a plate washer buffer to remove the formaldehyde solution. The plate was flicked to removed excess wash buffer and tapped onto paper towels. Quenching buffer (100 μL) was added to each well and the cells were incubated at ambient temperature for 20 minutes without shaking.
The cells were washed with a plate washer buffer to remove the quenching buffer. Blocking buffer (100 μL) was added and the cells were incubated at ambient temperature for at least an hour with gentle shaking.
The cells were washed with a plate washer buffer and diluted primary antibody (50 μL) was added to each well (blocking buffer was added to the negative control wells instead). The plates were incubated overnight at 4° C. with gentle shaking.
The wash buffer was removed, diluted secondary antibody (100 μL) was added, and the cells were incubated at ambient temperature for 1 hour with gentle shaking. […]

Compound	IC50
1-(5,8-dimethylmethano-8-methyl-5,6,7-trihydroquinazolin-2-yl)-N^3-(3-fluoro-4-(4-(pyrrolidin-1-yl)piperidin-1-yl)phenyl)-1H-1,2,4-triazole-3,5-diamine [Compound 21]	< 1000 nM
1-(5,8-methano-5,6,7,8-tetrahydroquinazolin-2-yl)-N^3-(4-(morpholin-1-yl)phenyl)-1H-1,2,4-triazole-3,5-diamine [Compound 5]	1000 to 10000 nM
1-((6R,8R)-6,8-dimethylmethano-5,6,7,8-tetrahydroquinoline-2-yl)-N^3-(3-fluoro-4-(4-(pyrrolidin-1-yl)piperidin-1-yl)phenyl)-1H-1,2,4-triazole-3,5-diamine [Compound 34]	< 1000 nM
CCSc1nc2c(c(-n3nc(Nc4ccc(OCCN5CCCC5)cc4)nc3N)n1)C1CCC2C1 (stereo not shown) [Compound 2, 1-(2-ethylthio-5,8-methano-5,6,7,8-tetrahydroquinazolin-4-yl)-N^3-(4-(2-(pyrrolidin-1-yl)ethoxy)phenyl)-1H-1,2,4-triazole-3,5-diamine]	< 1000 nM
Nc1nc(Nc2ccc(N3CCN(C4CC5CCC4C5)CC3)cc2)nn1-c1ncc2c(n1)C1CCC2C1 (stereo not shown) [Compound 8, N^3-(4-(4-(bicyclo[2.2.1]heptan-2-yl)piperazin-1-yl)phenyl)-1-(5,8-methano-5,6,7,8-tetrahydroquinazolin-2-yl)-1H-1,2,4-triazole-3,5-diamine]	< 1000 nM
Nc1nc(Nc2ccc(N3CCN(C4CCCCCCC4)CC3)cc2)nn1-c1ncc2c(n1)C1CCC2C1 (stereo not shown) [Compound 9, N^3-(4-(4-cyclooctylpiperazin-1-yl)phenyl)-1-(5,8-methano-5,6,7,8-tetrahydroquinazolin-2-yl)-1H-1,2,4-triazole-3,5-diamine]	< 1000 nM
Nc1nc(Nc2ccc(N3CCN(C4CCCCCC4)CC3)cc2)nn1-c1ncc2c(n1)C1CCC2C1 (stereo not shown) [Compound 10, N^3-(4-(4-cycloheptylpiperazin-1-yl)phenyl)-1-(5,8-methano-5,6,7,8-tetrahydroquinazolin-2-yl)-1H-1,2,4-triazole-3,5-diamine]	< 1000 nM
Nc1nc(Nc2ccc(N3CCC(N4CCCC4)CC3)c(F)c2)nn1-c1ncc2c(n1)C1CCC2C1 (stereo not shown) [Compound 11, 1-(5,8-methano-5,6,7,8-tetrahydroquinazolin-2-yl)-N^3-(3-fluoro-4-(4-(pyrrolidin-1-yl)piperidin-1-yl)phenyl)-1H-1,2,4-triazole-3,5-diamine]	< 1000 nM
Cc1csc2c(-n3nc(Nc4ccc5c(c4)CC4CCC(C5)C4N4CCCC4)nc3N)nc(Cl)nc12 (stereo not shown) [Compound 15, 1-(2-chloro-7-methylthieno[3,2-d]pyrimidin-4-yl)-N^3-(7-pyrrolidin-1-yl-6,8-ethano-6,7,8,9-tetrahydro-5H-benzo[7]annulene-3-yl)-1H-1,2,4-triazole-3,5-diamine]	< 1000 nM

Further lines, results first:

IC50	Compound
> 20000 nM	Nc1nc(Nc2ccc(OCCN3CCCC3)cc2)nn1-c1ncc2c(n1)C1CCC2C1 (stereo not shown) [Compound 1, 1-(5,8-methano-5,6,7,8-tetrahydroquinazolin-2-yl)-N^3-(4-(2-(pyrrolidin-1-yl)ethoxy)phenyl)-1H-1,2,4-triazole-3,5-diamine]
< 1000 nM	CN1CCCC(Oc2ccc(Nc3nc(N)n(-c4ncc5c(n4)C4CCC5C4)n3)cc2)C1 (stereo not shown) [Compound 3, (5,8-methano-5,6,7,8-tetrahydroquinazolin-2-yl)-N^3-(4-(1-methyl(piperidin-3-yl)oxy)phenyl)-1H-1,2,4-triazole-3,5-diamine]
< 1000 nM	CN1CCN(c2ccc(Nc3nc(N)n(-c4ncc5c(n4)C4CCC5C4)n3)cc2)CC1 (stereo not shown) [Compound 4, 1-(5,8-methano-5,6,7,8-tetrahydroquinazolin-2-yl)-N^3-(4-(4-methylpiperazin-1-yl)phenyl)-1H-1,2,4-triazole-3,5-diamine]
< 1000 nM	Nc1nc(Nc2ccc(N3CCN(C4CCCCC4)CC3)cc2)nn1-c1ncc2c(n1)C1CCC2C1 (stereo not shown) [Compound 6, 1-(5,8-methano-5,6,7,8-tetrahydroquinazolin-2-yl)-N^3-(4-(4-cyclohexanylpiperazin-1-yl)phenyl)-1H-1,2,4-triazole-3,5-diamine]
> 20000 nM	CN1CCC(c2ccc(Nc3nc(N)n(-c4ncc5c(n4)C4CCC5C4)n3)cc2)CC1 (stereo not shown) [Compound 12, N^3-(4-(1-methylpiperidin-4-yl)phenyl)-1-(5,8-methano-5,6,7,8-tetrahydroquinazolin-2-yl)-1H-1,2,4-triazole-3,5-diamine]
> 20000 nM	Nc1nc(Nc2ccc3c(c2)CCNC3)nn1-c1ncc2c(n1)C1CCC2C1 (stereo not shown) [Compound 13, 1-(5,8-methano-5,6,7,8-tetrahydroquinazolin-2-yl)-N^3-(1,2,3,4-tetrahydroisoquinolin-6-yl)-1H-1,2,4-triazole-3,5-diamine]
< 1000 nM	COc1cc2ncnc(-n3nc(Nc4ccc5c(c4)CC4CCC(C5)C4N4CCCC4)nc3N)c2cc1OC (stereo not shown) [Compound 16, 1-(6,7-dimethoxyquinazolin-4-yl)-N^3-(7-pyrrolidin-1-yl-6,8-ethano-6,7,8,9-tetrahydro-5H-benzo[7]annulene-3-yl)-1H-1,2,4-triazole-3,5-diamine]
< 1000 nM	CCN(CC)C1CCN(c2ccc(Nc3nc(N)n(-c4ncnc5c4C4CCC5C4)n3)cc2F)CC1 (stereo not shown) [Compound 17, 1-(5,8-methano-5,6,7,8-tetrahydroquinazolin-4-yl)-N^3-(3-fluoro-4-(4-diethylaminopiperidin-1-yl)phenyl)-1H-1,2,4-triazole-3,5-diamine]
< 1000 nM	Nc1nc(Nc2ccc(N3CCN(C4CC5CCC4C5)CC3)cc2)nn1-c1ncnc2c1C1CCC2C1 (stereo not shown) [Compound 18, 1-(5,8-methano-5,6,7,8-tetrahydroquinazolin-4-yl)-N^3-(4-(4-(bicyclo[2.2.1]heptan-2-yl)piperazin-1-yl)phenyl)-1H-1,2,4-triazole-3,5-diamine]
< 1000 nM	Nc1nc(Nc2ccc(OCCN3CCCC3)cc2)nn1-c1ncnc2c1C1CCC2C1 (stereo not shown) [Compound 19, 1-(5,8-methano-5,6,7,8-tetrahydroquinazolin-4-yl)-N^3-(4-(2-(pyrrolidin-1-yl)ethoxy)phenyl)-1H-1,2,4-triazole-3,5-diamine]
